± gives the expanded uncertainty stated by the source.
Assay: mn = molality of the nth substance listed, in mol/kg
Conditions: 101 kPa, Liquid; for mass density: Pycnometric method; for viscosity: Capillary tube (Ostwald / Ubbelohde) method; for speed of sound: Linear variable-path acoustic interferometer

CC(=O)[O-].CC(=O)[O-].[Mg+2] [magnesium acetate] + O
mass density (305.5 K, m1 = 1.866): 1115.1 ± 0.8 kg/m3
mass density (305.65 K, m1 = 0.646): 1041.8 ± 0.7 kg/m3
mass density (305.85 K, m1 = 1.354): 1086.1 ± 0.7 kg/m3
mass density (305.85 K, m1 = 5.732): 1263.4 ± 0.9 kg/m3
mass density (305.95 K, m1 = 0.0831): 1001 ± 0.6 kg/m3
mass density (305.95 K, m1 = 0.8751): 1056.2 ± 0.7 kg/m3
mass density (306.3 K, m1 = 0.4247): 1026.1 ± 0.7 kg/m3
mass density (306.4 K, m1 = 3.043): 1171.3 ± 0.8 kg/m3
mass density (306.4 K, m1 = 3.437): 1191.7 ± 0.8 kg/m3
mass density (306.55 K, m1 = 1.608): 1101.3 ± 0.7 kg/m3
mass density (306.65 K, m1 = 5.165): 1247 ± 0.9 kg/m3
mass density (306.75 K, m1 = 3.819): 1203.4 ± 0.8 kg/m3
mass density (306.9 K, m1 = 0.1671): 1007 ± 0.6 kg/m3
mass density (307.25 K, m1 = 2.134): 1128.6 ± 0.8 kg/m3
mass density (307.5 K, m1 = 2.622): 1152.1 ± 0.7 kg/m3
mass density (307.6 K, m1 = 4.547): 1227.3 ± 0.9 kg/m3
mass density (307.65 K, m1 = 0.0414): 997.17 ± 0.65 kg/m3
mass density (307.75 K, m1 = 1.327): 1084 ± 0.7 kg/m3
mass density (308.05 K, m1 = 1.866): 1114 ± 0.7 kg/m3
mass density (308.1 K, m1 = 1.106): 1071.4 ± 0.7 kg/m3
viscosity (308.15 K, m1 = 0.0414): 0.7529 ± 0.01 mPa·s
viscosity (308.15 K, m1 = 0.0831): 0.7775 ± 0.01 mPa·s
viscosity (308.15 K, m1 = 0.1671): 0.8306 ± 0.011 mPa·s
viscosity (308.15 K, m1 = 0.4247): 1.021 ± 0.014 mPa·s
viscosity (308.15 K, m1 = 0.646): 1.231 ± 0.016 mPa·s
viscosity (308.15 K, m1 = 0.8751): 1.45 ± 0.019 mPa·s
viscosity (308.15 K, m1 = 1.106): 1.774 ± 0.024 mPa·s
viscosity (308.15 K, m1 = 1.354): 2.139 ± 0.029 mPa·s
viscosity (308.15 K, m1 = 1.608): 2.139 ± 0.029 mPa·s
viscosity (308.15 K, m1 = 1.866): 3.181 ± 0.043 mPa·s
viscosity (308.15 K, m1 = 2.134): 3.943 ± 0.054 mPa·s
viscosity (308.15 K, m1 = 2.411): 5.121 ± 0.071 mPa·s
viscosity (308.15 K, m1 = 2.622): 5.819 ± 0.081 mPa·s
viscosity (308.15 K, m1 = 3.043): 8.11 ± 0.12 mPa·s
viscosity (308.15 K, m1 = 3.437): 12.3 ± 0.18 mPa·s
viscosity (308.15 K, m1 = 4.001): 19.17 ± 0.29 mPa·s
viscosity (308.15 K, m1 = 4.563): 31.43 ± 0.5 mPa·s
viscosity (308.15 K, m1 = 4.929): 39.25 ± 0.67 mPa·s
viscosity (308.15 K, m1 = 5.41): 72.56 ± 0.96 mPa·s
viscosity (308.15 K, m1 = 5.732): 96.97 ± 2 mPa·s
viscosity (308.15 K, m1 = 6.187): 175.6 ± 4.6 mPa·s
speed of sound (308.15 K, m1 = 0.0414): 1523.3 ± 1.9 m/s
speed of sound (308.15 K, m1 = 0.0831): 1530.3 ± 1.9 m/s
speed of sound (308.15 K, m1 = 0.1671): 1541.4 ± 1.9 m/s
speed of sound (308.15 K, m1 = 0.4247): 1575.1 ± 1.9 m/s
speed of sound (308.15 K, m1 = 0.646): 1601.9 ± 1.9 m/s
speed of sound (308.15 K, m1 = 0.8751): 1631.2 ± 1.9 m/s
speed of sound (308.15 K, m1 = 1.106): 1655.9 ± 1.9 m/s
speed of sound (308.15 K, m1 = 1.354): 1677.9 ± 2 m/s
speed of sound (308.15 K, m1 = 1.608): 1705 ± 2 m/s
speed of sound (308.15 K, m1 = 1.866): 1728.9 ± 2 m/s
speed of sound (308.15 K, m1 = 2.134): 1754.2 ± 2 m/s
speed of sound (308.15 K, m1 = 2.411): 1782.5 ± 2 m/s
speed of sound (308.15 K, m1 = 2.622): 1791.3 ± 2 m/s
speed of sound (308.15 K, m1 = 3.043): 1819.5 ± 2.1 m/s
speed of sound (308.15 K, m1 = 3.437): 1847.8 ± 2.1 m/s
speed of sound (308.15 K, m1 = 3.819): 1862.6 ± 2.1 m/s
speed of sound (308.15 K, m1 = 4.547): 1888.8 ± 2.1 m/s
speed of sound (308.15 K, m1 = 5.165): 1908 ± 2.1 m/s
speed of sound (308.15 K, m1 = 5.732): 1914.4 ± 2.1 m/s
mass density (308.45 K, m1 = 6.187): 1274.5 ± 0.9 kg/m3
mass density (308.65 K, m1 = 0.646): 1040.7 ± 0.7 kg/m3
mass density (308.65 K, m1 = 1.354): 1085 ± 0.7 kg/m3
mass density (308.7 K, m1 = 3.437): 1190.5 ± 0.9 kg/m3
mass density (308.75 K, m1 = 0.8751): 1055.2 ± 0.7 kg/m3
mass density (308.75 K, m1 = 3.043): 1170.1 ± 0.8 kg/m3
mass density (308.85 K, m1 = 5.165): 1245.6 ± 0.9 kg/m3
mass density (308.9 K, m1 = 0.0831): 1000 ± 0.6 kg/m3
mass density (308.95 K, m1 = 3.819): 1202.2 ± 0.8 kg/m3
mass density (309.1 K, m1 = 2.411): 1142.9 ± 0.8 kg/m3
mass density (309.25 K, m1 = 0.4247): 1025.2 ± 0.7 kg/m3
mass density (309.6 K, m1 = 1.608): 1100.1 ± 0.7 kg/m3
mass density (309.7 K, m1 = 0.1671): 1006 ± 0.7 kg/m3
mass density (309.7 K, m1 = 4.547): 1225.9 ± 0.9 kg/m3
mass density (309.7 K, m1 = 5.732): 1260.8 ± 0.9 kg/m3
mass density (309.8 K, m1 = 2.134): 1127.4 ± 0.7 kg/m3
mass density (309.95 K, m1 = 2.622): 1151 ± 0.7 kg/m3
mass density (310.45 K, m1 = 6.187): 1273.1 ± 0.9 kg/m3
mass density (310.6 K, m1 = 1.327): 1082.8 ± 0.7 kg/m3
mass density (310.7 K, m1 = 1.106): 1070.3 ± 0.7 kg/m3
mass density (310.8 K, m1 = 6.545): 1280.7 ± 0.9 kg/m3
mass density (310.85 K, m1 = 0.0414): 996.1 ± 0.65 kg/m3
mass density (310.85 K, m1 = 3.437): 1189.2 ± 0.8 kg/m3
mass density (310.95 K, m1 = 5.165): 1244.3 ± 0.9 kg/m3
mass density (311.2 K, m1 = 3.819): 1201 ± 0.8 kg/m3
mass density (311.25 K, m1 = 3.043): 1168.8 ± 0.8 kg/m3
mass density (311.35 K, m1 = 0.646): 1039.6 ± 0.7 kg/m3
mass density (311.4 K, m1 = 1.354): 1083.9 ± 0.7 kg/m3
mass density (311.65 K, m1 = 0.8751): 1054 ± 0.7 kg/m3
mass density (311.85 K, m1 = 0.0831): 998.98 ± 0.66 kg/m3
mass density (311.9 K, m1 = 4.547): 1224.6 ± 0.8 kg/m3
mass density (312.1 K, m1 = 0.4247): 1024 ± 0.7 kg/m3
mass density (312.15 K, m1 = 1.608): 1099 ± 0.7 kg/m3
mass density (312.3 K, m1 = 6.187): 1271.8 ± 0.9 kg/m3
mass density (312.45 K, m1 = 2.134): 1126.3 ± 0.8 kg/m3
mass density (312.55 K, m1 = 0.1671): 1004.8 ± 0.7 kg/m3
mass density (312.55 K, m1 = 2.622): 1149.7 ± 0.8 kg/m3
mass density (312.7 K, m1 = 6.545): 1279.4 ± 0.9 kg/m3
viscosity (313.15 K, m1 = 0.0414): 0.6835 ± 0.009 mPa·s
viscosity (313.15 K, m1 = 0.0831): 0.7037 ± 0.0093 mPa·s
viscosity (313.15 K, m1 = 0.1671): 0.7523 ± 0.0099 mPa·s
viscosity (313.15 K, m1 = 0.4247): 0.9195 ± 0.012 mPa·s
viscosity (313.15 K, m1 = 0.646): 1.105 ± 0.015 mPa·s
viscosity (313.15 K, m1 = 0.8751): 1.294 ± 0.017 mPa·s
viscosity (313.15 K, m1 = 1.106): 1.573 ± 0.021 mPa·s
viscosity (313.15 K, m1 = 1.354): 1.887 ± 0.025 mPa·s
viscosity (313.15 K, m1 = 1.608): 1.887 ± 0.025 mPa·s
viscosity (313.15 K, m1 = 1.866): 2.771 ± 0.037 mPa·s
viscosity (313.15 K, m1 = 2.134): 3.404 ± 0.046 mPa·s
viscosity (313.15 K, m1 = 2.411): 4.373 ± 0.06 mPa·s
viscosity (313.15 K, m1 = 2.622): 4.948 ± 0.068 mPa·s
viscosity (313.15 K, m1 = 3.043): 6.797 ± 0.095 mPa·s
viscosity (313.15 K, m1 = 3.437): 10.13 ± 0.15 mPa·s
viscosity (313.15 K, m1 = 4.001): 15.43 ± 0.23 mPa·s
viscosity (313.15 K, m1 = 4.563): 24.53 ± 0.38 mPa·s
viscosity (313.15 K, m1 = 4.929): 30.41 ± 0.5 mPa·s
viscosity (313.15 K, m1 = 5.41): 54.06 ± 0.68 mPa·s
viscosity (313.15 K, m1 = 5.732): 71.46 ± 1.3 mPa·s
viscosity (313.15 K, m1 = 6.187): 120 ± 2.8 mPa·s
speed of sound (313.15 K, m1 = 0.0414): 1532.2 ± 1.9 m/s
speed of sound (313.15 K, m1 = 0.0831): 1539 ± 1.9 m/s
speed of sound (313.15 K, m1 = 0.1671): 1547.7 ± 1.9 m/s
speed of sound (313.15 K, m1 = 0.4247): 1582.3 ± 1.9 m/s
speed of sound (313.15 K, m1 = 0.646): 1607.4 ± 1.9 m/s
speed of sound (313.15 K, m1 = 0.8751): 1635.6 ± 1.9 m/s
speed of sound (313.15 K, m1 = 1.106): 1659.1 ± 2 m/s
speed of sound (313.15 K, m1 = 1.354): 1679.3 ± 2 m/s
speed of sound (313.15 K, m1 = 1.608): 1704.6 ± 2 m/s
speed of sound (313.15 K, m1 = 1.866): 1728.4 ± 2 m/s
speed of sound (313.15 K, m1 = 2.134): 1752.5 ± 2 m/s
speed of sound (313.15 K, m1 = 2.411): 1778.6 ± 2 m/s
speed of sound (313.15 K, m1 = 2.622): 1787.1 ± 2 m/s
speed of sound (313.15 K, m1 = 3.043): 1815 ± 2.1 m/s
speed of sound (313.15 K, m1 = 3.437): 1840.3 ± 2.1 m/s
speed of sound (313.15 K, m1 = 3.819): 1854.1 ± 2.1 m/s
speed of sound (313.15 K, m1 = 4.547): 1878.9 ± 2.1 m/s
speed of sound (313.15 K, m1 = 5.165): 1896 ± 2.1 m/s
mass density (313.15 K, m1 = 3.437): 1188 ± 0.8 kg/m3
mass density (313.35 K, m1 = 0.0414): 995.14 ± 0.68 kg/m3
mass density (313.45 K, m1 = 1.327): 1081.7 ± 0.7 kg/m3
mass density (313.45 K, m1 = 1.866): 1111.6 ± 0.8 kg/m3
mass density (313.45 K, m1 = 3.819): 1199.8 ± 0.8 kg/m3
mass density (313.5 K, m1 = 1.106): 1069.1 ± 0.7 kg/m3
mass density (313.5 K, m1 = 3.043): 1167.6 ± 0.8 kg/m3
mass density (313.55 K, m1 = 5.732): 1258.3 ± 0.9 kg/m3
mass density (314 K, m1 = 4.547): 1223.4 ± 0.8 kg/m3
mass density (314.05 K, m1 = 1.354): 1082.8 ± 2.5 kg/m3
mass density (314.1 K, m1 = 2.411): 1140.6 ± 0.8 kg/m3
mass density (314.25 K, m1 = 0.646): 1038.6 ± 0.7 kg/m3
mass density (314.25 K, m1 = 6.187): 1270.4 ± 0.9 kg/m3
mass density (314.3 K, m1 = 0.8751): 1052.9 ± 0.7 kg/m3
mass density (314.35 K, m1 = 0.0831): 997.91 ± 0.67 kg/m3
mass density (314.5 K, m1 = 6.545): 1278.1 ± 0.9 kg/m3
mass density (314.65 K, m1 = 0.4247): 1022.9 ± 0.7 kg/m3

— the NIST ThermoML archive (doi:10.1021/je060107n)
